The record followed here is patent US8258134B2, “Pyridazinone glucokinase activators” (Hoffmann-La Roche Inc., priority 2008, dated 2012).

Molecules are shown by their SMILES.

This assay addresses T1, Recombinant human liver GK1 (GST-GK) (Homo sapiens, UniProt P35557).
T1 construct: made in house; host or cells: E. coli
T1 sequence (P35557 1-466 isoform P35557-2): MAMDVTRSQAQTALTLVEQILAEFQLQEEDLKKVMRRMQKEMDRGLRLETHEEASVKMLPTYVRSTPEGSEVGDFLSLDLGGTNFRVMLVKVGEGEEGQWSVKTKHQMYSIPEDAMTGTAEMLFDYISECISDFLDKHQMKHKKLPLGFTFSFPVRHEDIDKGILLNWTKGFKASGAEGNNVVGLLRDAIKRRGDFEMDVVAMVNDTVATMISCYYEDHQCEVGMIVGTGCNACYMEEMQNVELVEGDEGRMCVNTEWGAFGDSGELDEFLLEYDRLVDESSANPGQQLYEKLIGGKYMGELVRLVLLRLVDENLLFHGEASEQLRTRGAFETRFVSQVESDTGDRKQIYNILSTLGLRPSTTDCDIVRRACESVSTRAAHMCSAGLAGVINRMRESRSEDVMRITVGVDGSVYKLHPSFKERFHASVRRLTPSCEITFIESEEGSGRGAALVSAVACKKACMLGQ
In words: Glucokinase in vitro assay (G6PDH-coupled NADH generation, OD340). The conditions noted are these: 5 mM D-glucose, 30° C., pH 7.1, 10% DMSO. Format: biochemical. How it is done: Glucokinase In Vitro Assay Protocol: Glucokinase (GK) was assayed by coupling the production of glucose-6-phosphate to the generation of NADH with glucose-6-phosphate dehydrogenase (G6PDH, 0.75-1 k units/mg; Boehringer Mannheim, Indianapolis, Ind.) from Leuconostoc mesenteroides as the coupling enzyme (Scheme 2):
Recombinant human liver GK1 was expressed in E. coli as a glutathione S-transferase fusion protein (GST-GK) [Liang et al, 1995] and was purified by chromatography over a glutathione-Sepharose 4B affinity column using the procedure provided by the manufacturer (Amersham Pharmacia Biotech, Piscataway, N.J.).
The assay was conducted at 30° C. in a flat bottom 96-well tissue culture plate from Costar (Cambridge, Mass.) with a final incubation volume of 120 μL. The incubation reaction contained the following: 25 mM Hepes buffer (pH 7.1), 25 mM KCl, 5 mM D-glucose, 1 mM ATP, 1.8 mM NAD, 2 mM MgCl2, 1 μM sorbitol-6-phosphate, 1 mM dithiothreitol, test drug or 10% DMSO, ˜7 units/ml G6PDH, and GK (see below). All organic reagents were >98% pure and were from Boehringer Mannheim with the exceptions of D-glucose and Hepes which were from Sigma Chemical Co, St Louis, Mo. Test compounds were dissolved in DMSO and were added to the incubation reaction minus GST-GK in a volume of 12 μL to yield a final DMSO concentration of 10%. This mix was pre-incubated in the temperature controlled chamber of a SPECTRAmax 250 microplate spectrophotometer (Molecular Devices Corporation, Sunnyvale, Calif.) for 10 minutes to allow temperature equilibrium and then the reaction was started by the addition of 20 μL GST-GK.
After addition of enzyme, the increase in optical density (OD) at 340 nm was monitored spectrophotometrically to determine the rate of change (OD340 per min). The GK activity (OD340/min) in control wells (10% DMSO minus GK activators) was compared with the activity in wells containing test GK activators, and the concentration of activator that produced a 50% increase in the activity of GK, i.e., the SC1.5, was calculated. The table below provides the in vitro glucokinase activity for the compounds in the Examples: […]
`CC(C)(O)Cn1ccc(NC(=O)C(CC2CCCC2)n2ncc(Oc3ccccc3S(C)(=O)=O)cc2=O)n1` (stereo not shown) [Example 30, 3-Cyclopentyl-N-[1-(2-hydroxy-2-methyl-propyl)-1H-pyrazol-3-yl]-2-[4-(2-methanesulfonyl-phenoxy)-6-oxo-6H-pyridazin-1-yl]-propionamide]: the “SC1.5 average (concentration of activator that produced a 50% increase in the activity of GK)” value came out at 2.975 µM.

For `CC(C)CC(C(=O)Nc1ccn(C[C@@H](O)CO)n1)n1ncc(-n2ccc3c(O)cccc32)cc1=O` (stereo partly drawn) [Example 112, 2-[4-(4-Hydroxy-indol-1-yl)-6-oxo-6H-pyridazin-1-yl]-4-methyl-pentanoic acid [1-((R)-2,3-dihydroxy-propyl)-1H-pyrazol-3-yl]-amide], the “SC1.5 average (concentration of activator that produced a 50% increase in the activity of GK)” value worked out at 2.606 µM.

On to `CC(C)CC(C(=O)Nc1ccn(C)n1)n1ncc(Oc2cccc3c2ccn3C[C@@H](O)CO)cc1=O` (stereo partly drawn) [Example 113, 2-{4-[1-((R)-2,3-Dihydroxy-propyl)-1H-indol-4-yloxy]-6-oxo-6H-pyridazin-1-yl}-4-methyl-pentanoic acid (1-methyl-1H-pyrazol-3-yl)-amide], for which the “SC1.5 average (concentration of activator that produced a 50% increase in the activity of GK)” value worked out at 2.308 µM.

Regarding `O=C(Nc1ccn(CCO)n1)C(CC1CCCC1)n1ncc(Oc2c(F)cccc2F)cc1=O` (stereo not shown) [Example 60, 3-Cyclopentyl-2-[4-(2,6-difluoro-phenoxy)-6-oxo-6H-pyridazin-1-yl]-N-[1-(2-hydroxy-ethyl)-1H-pyrazol-3-yl]-propionamide], the “SC1.5 average (concentration of activator that produced a 50% increase in the activity of GK)” value came to 0.166 µM.

Consider `COC(=O)c1ccc(NC(=O)C(CC2CCCC2)n2ncc(Oc3ccccc3C)cc2=O)nc1` (stereo not shown) [Example 69, 6-[3-Cyclopentyl-2-(6-oxo-4-o-tolyloxy-6H-pyridazin-1-yl)-propionylamino]-nicotinic acid methyl ester], for which the “SC1.5 average (concentration of activator that produced a 50% increase in the activity of GK)” value came out at 0.033 µM.

Turning to `CC(C)(O)Cn1ccc(NC(=O)C(Cc2c(F)cccc2F)n2ncc(Oc3c(F)cccc3F)cc2=O)n1` (stereo not shown) [Example 50, 2-[4-(2,6-Difluoro-phenoxy)-6-oxo-6H-pyridazin-1-yl]-3-(2,6-difluoro-phenyl)-N-[1-(2-hydroxy-2-methyl-propyl)-1H-pyrazol-3-yl]-propionamide], the “SC1.5 average (concentration of activator that produced a 50% increase in the activity of GK)” value amounted to 0.466 µM.

With `Cc1ncccc1Oc1cnn(C(CC2CCCC2)C(=O)Nc2ccn(CC(C)(C)O)n2)c(=O)c1` (stereo not shown) [Example 25, 3-Cyclopentyl-N-[1-(2-hydroxy-2-methyl-propyl)-1H-pyrazol-3-yl]-2-[4-(2-methyl-pyridin-3-yloxy)-6-oxo-6H-pyridazin-1-yl]-propionamide], the “SC1.5 average (concentration of activator that produced a 50% increase in the activity of GK)” value is 1.773 µM.

Turning to `CC(C)(O)Cn1ccc(NC(=O)[C@@H](CC2CCCC2)n2ncc(Oc3c(F)cccc3F)cc2=O)n1` [Example 36B, (R)-3-Cyclopentyl-2-[4-(2,6-difluoro-phenoxy)-6-oxo-6H-pyridazin-1-yl]-N-[1-(2-hydroxy-2-methyl-propyl)-1H-pyrazol-3-yl]-propionamide], the “SC1.5 average (concentration of activator that produced a 50% increase in the activity of GK)” value was 1.596 µM.

Regarding `CC(C)(O)Cn1ccc(NC(=O)[C@@H](CC2CCCC2)n2ncc(Oc3ccc(F)cc3F)cc2=O)n1` [Example 32B, (R)-3-Cyclopentyl-2-[4-(2,4-difluoro-phenoxy)-6-oxo-6H-pyridazin-1-yl]-N-[1-(2-hydroxy-2-methyl-propyl)-1H-pyrazol-3-yl]-propionamide], the “SC1.5 average (concentration of activator that produced a 50% increase in the activity of GK)” value was 26.185 µM.

Turning to `CC(C)(O)Cn1ccc(NC(=O)[C@H](CC2CCCCC2)n2ncc(Oc3c(F)cccc3F)cc2=O)n1` [Example 51A, (S)-3-Cyclohexyl-2-[4-(2,6-difluoro-phenoxy)-6-oxo-6H-pyridazin-1-yl]-N-[1-(2-hydroxy-2-methyl-propyl)-1H-pyrazol-3-yl]-propionamide], the “SC1.5 average (concentration of activator that produced a 50% increase in the activity of GK)” value worked out at 0.038 µM.
